Measurements reported in patent publication US11001802B2, “Surface of a vessel with polystyrene, nitrogen, oxygen and a static sessile contact angle for attachment and cultivation of cells” (Nunc A/S, priority 2008, dated 2021).

Assays:
human ES cell line H9 = assay: Attachment and colony formation of H9 human ES cells on surface modified plates with Rho kinase inhibitors (crystal violet, image analysis); type: cell-based; settings: H9 on surface modified plates 2, 3, 4 and 13; crystal violet; Y-27632 at 10 μM
Experimental: Human ES cells of the line H9, at passage 40 were maintained in MEF conditioned media on Nunclon Delta™ plates treated with a 1:30 dilution of growth factor reduced Matrigel™, prior to study. Cells were dissociated from the surface for passage by 1 mg/ml collagenase dissociation or by manual scraping.
These cells were then seeded onto surface modified plates 2, 3, 4 and 13 (12-well format) in the presence of increasing amounts one of the following Rho Kinase inhibitors: Y-27632 (from Sigma, St. Louis, Mo. or EMD, San Diego, Calif.), Fasudil (Sigma), or Hydroxyfasudil (Sigma), and maintained for 3 days, each day replacing the media and compound. At the end of day three, media was removed and the plates were stained with Crystal Violet (0.5% in water) to visualize colonies.
It was attempted to determine the optimal dose of Y-27632 to promote cell binding, by treating cells with a range of plating concentrations of Y-27632 for the first day of culture. After the first day in culture cells were treated on subsequent days with a 10 μM concentration of Y-27632. It was observed that the maximal concentration to stimulate attachment and growth of ES cells was 10 μM (FIG. 12) and that this occurred on surface modified plates 2, 3, 4, 13 and CellBIND™ (Corning, Corning, N.Y.).
The effect of treating the cells continuously with a single dose of Y-27632 on attachment and growth was also tested. The cells were dosed with 0, 1, 4, or 10 μM Y-27632 for 4 days. Some binding was observed on surface modified plates without treatment (0 μM), however the optimal concentration to stimulate attachment and growth of ES cells was 10 μM Y-27632 (Table 4) on surface modified plates 2, 3, 4, 13.

HEK293 cells = assay: HEK293 attachment and growth, culture confluence by IncuCyte Plus (Examples 20, 21); type: cell-based, human
Experimental: HEK293 cells were maintained in EMEM (Lonza) containing 10% FBS (Lonza). Cells were passaged at 70-80% confluence using Trypsin/EDTA for dissociation, and seeded at c 2.0×10^4 cells/cm^2 in 75-cm^2 flasks with Nunclon Delta™ surface (Thermo Fisher Scientific, Roskilde, Denmark).
EMEM (500 μl) supplemented with 10% FBS containing 1.0, 5.0, 10, 15 or 20 μM Y-27632 (Sigma Chemical Co.), or 0.4, 1.2, 1.6, 2.4 or 2.8 μM H-1152 (Calbiochem, EMD Chemicals Inc., Darmstadt, Germany) was dispensed in Multidish 24-well plates with either Surface 4 or a non-treated (but gamma irradiated; 25 kGy) polystyrene surface. Another 500 μl of EMEM supplemented with 10% FBS and containing HEK293 cells were added to the wells (2.0×10^4 cells/cm^2). The cultures were placed in an IncuCyte™ Plus (Essen Instruments, Michigan, USA) and incubated at 37° C. in a humidified atmosphere of 5% CO2 in air. The IncuCyte™ Plus is an automated imaging platform, configured to fit inside a CO2 incubator, and designed to provide kinetic, non-invasive live cell imaging by acquiring phase contrast images of the cells at user-defined times and locations within the cultures. The primary metric of the instrument is culture confluence, that is, the fraction of the surface that is covered by cells. The HEK293 cells were incubated for 72 hours without manipulations, and images were collected every two hours at 9 positions in triplicate cultures. Culture confluence was determined using the IncuCyte™ Plus software (v. 3.4.1.25966).
EMEM (1.0 ml) supplemented with 10% FBS containing 0.4, 0.8, 1.2, 1.6, 2.0, 2.4 or 2.8 μM H-1152 was dispensed in Multidish 12-well plates with Surface 4. Another 1.0 ml of EMEM supplemented with […] and containing HEK293 cells were added to the wells (4.0×10^4 cells/cm^2). The cultures were placed in an IncuCyte™ Plus, and incubated at 37° C. in a humidified atmosphere of 5% CO2 in air for 42 hours (images were collected every 6 hours). One ml of culture medium was then removed by pipetting, and 1.0 ml EMEM supplemented with 10% FBS containing 0.2, 0.4, 0.6, 0.8, 1.0, 1.2 and 1.4 μM H-1152 was added. The cultures were placed in the IncuCyte™ Plus again, and images were collected every hour over the following 25 hours. Images were collected at 9 positions in triplicate cultures, and culture confluence was determined using the IncuCyte™ Plus software. Images from the IncuCyte™ Plus collected at specific positions in HEK293 cell cultures grown in the absence or presence of H-1152 (0.6 μM) was retrieved and presented as phase-contrast micrographs for the comparison of HEK293 culture morphology at the following time points: start of incubation (0 hours), just before medium change (42 hours), 1 hour after the medium change (43 hours), and, finally, after 52 hours of incubation.

Structure (SMILES)	attachment of ES cell colonies by day three (human ES cell line H9)	effect of change of 50% of the medium after 42 hours on culture confluence (HEK293 cells; Surface 4, 0.2 μM or 0.4 μM H-1152)	effect of change of 50% of the medium after 42 hours on culture confluence (HEK293 cells; Surface 4, 0.6 μM, 0.8 μM or 1.4 μM H-1152)	attachment and growth of HEK293 cells (HEK293 cells; Surface 4, increasing concentration)	growth and attachment of HEK293 cells (HEK293 cells; non-treated polystyrene surface, 10 μM Y-27632, 0.6-1.2 μM H-1152)
O=S(=O)(c1cccc2cnccc12)N1CCCNCC1 [Fasudil]	some colonies could be observed to attach and grow				
O=c1[nH]ccc2c(S(=O)(=O)N3CCCNCC3)cccc12 [Hydroxyfasudil]	some colonies could be observed to attach and grow				
Cc1cncc2cccc(S(=O)(=O)N3CCCNC[C@@H]3C)c12 [Surface H-1152, H-1152]		significant reduction in culture confluence	minimal	enhances attachment and growth	slightly enhanced
